The target of this assay is T1, Aldo-keto reductase family 1 member A1 (Sus scrofa, UniProt P50578).
T1 sequence (P50578 whole entry): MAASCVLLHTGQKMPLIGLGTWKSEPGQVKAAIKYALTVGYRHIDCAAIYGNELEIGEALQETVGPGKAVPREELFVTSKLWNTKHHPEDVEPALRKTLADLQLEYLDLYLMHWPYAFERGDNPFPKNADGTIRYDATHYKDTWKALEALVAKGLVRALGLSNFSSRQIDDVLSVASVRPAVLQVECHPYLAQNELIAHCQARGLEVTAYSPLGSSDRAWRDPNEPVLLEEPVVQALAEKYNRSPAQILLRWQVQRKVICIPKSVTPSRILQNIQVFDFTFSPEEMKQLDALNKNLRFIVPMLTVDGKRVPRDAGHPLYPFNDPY
Description: Inhibitory concentration against porcine ALR1 Aldehyde reductase using DL-glyceraldehyde.

Structures are written as SMILES.

The record followed here is ChEMBL document CHEMBL1141161, “Structure of aldehyde reductase holoenzyme in complex with the potent aldose reductase inhibitor fidarestat: implications for inhibitor binding and selectivity” (J Med Chem, 2005).

A word on the IC50: it is the concentration needed to halve the response being measured. Low readings indicate greater potency in that assay, high ones weaker potency in that assay. `NC(=O)[C@H]1C[C@]2(NC(=O)NC2=O)c2cc(F)ccc2O1` yielded an IC50 of 17.8 µM.

For the compound `NC(=O)[C@@H]1C[C@]2(NC(=O)NC2=O)c2cc(F)ccc2O1`, it took 2.5 µM to reach half-maximal inhibition (IC50).
